Measured values published in US20240043389A1, “COMPOUNDS AND METHODS FOR INHIBITION OF BAX-MEDIATED CELL DEATH” (Albert Einstein College of Medicine, priority 2020, published 2024).
Each block holds one molecule with its values, some of them ahead of it.

Experiments:
[1] = target: T1, BAX R145E (Homo sapiens, UniProt Q07812, R145E); assay: Liposomal release assay, BAX R145E mutant; assay type: biochemical; settings: 250 nM BAX, 5 nM tBID
T1 construct: Human full-length (1-192) wild-type BAX (Q07812); made in house; host or cells: E. coli BL21 (DE3) CodonPlus (DE3)-RIPL
T1 sequence (Q07812 whole entry R145E): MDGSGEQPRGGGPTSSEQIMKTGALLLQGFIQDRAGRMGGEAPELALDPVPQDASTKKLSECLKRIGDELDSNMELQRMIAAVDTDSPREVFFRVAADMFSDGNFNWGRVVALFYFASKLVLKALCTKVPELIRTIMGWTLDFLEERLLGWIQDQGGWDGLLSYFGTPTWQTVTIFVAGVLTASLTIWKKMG
Experimental: (§1) Liposomes were formed by extrusion of the suspension using Avanti Mini-Extruder (cat #610000) with polycarbonate membranes of 0.1 μm pore size (Avanti Polar Lipids). ANTS/DPX encapsulated liposomes were purified from non-encapsulated ANTS/DPX by gel filtration of a 10 mL CL2B-Sepharose (GE Healthcare Life Sciences) gravity flow column. […] Reactions were initiated by the addition of 10 μL of the encapsulated ANTS/DPX liposome stock. ANTS/DPX release was quantified based on the increase in fluorescence intensity that occurs when the ANTS fluorophore is separated from the DPX quencher upon release from the liposomes into solution. Fluorescence (λex=355 nm and λem=520 nm) was measured at 1-minute intervals at room temperature (22-25° C.) indicated using a Tecan Infinite M1000 plate reader. In the case of heat activation, reactions were setup as described in the absence of tBID or BIM, and experiments were recorded at 42° C. The percentage release of ANTS/DPX at any given time point was calculated as percentage release=((F−F0)/(F100−F0))(100), where F0 and F100 are baseline and maximal fluorescence, respectively. Triton X-100 (1%) was used to determine the maximum amount of liposomal release per assay and was set to 100%.

[2] = tested on: BAX−/−MEFs; assay: STS-induced caspase 3/7 assay in BAX-/- MEFs; assay type: cell-based, mouse; settings: MEFs expressing only BAK, 3 μM STS, 6 hr
From the text: FIGS. 9a, 9b, 9c, 9d, 9e, and 9f are a set of diagrams showing that eltrombopag inhibits BAX translocation and BAX-mediated apoptosis in cells. […] BAX translocation is based on antibody-based detection of BAX and mitochondrial protein TOMM20. Representative confocal micrographs from three independent biological experiments. Scale bar, […]. […] Data represent ±SEM of three independent biological replicates. Two-sided t test, ****P<0.0001; ***P<0.001; **P<0.01; *P<0.05; ns, P>0.05. […] Actin and VDAC are loading controls for cytosolic and mitochondrial fractions, respectively. FIGS. 9d and 9e show a caspase 3/7 assay of BAK−/− mouse embryonic fibroblasts (MEFs) (FIG. 9d) and BAX−/−MEFs (FIG. 9e) in response to 3 μM STS and the presence or absence of various doses of EO for 6 hr. Data represent mean of n=3±SEM and are representative of three independent experiments. Two-sided t-test, **** P<0.0001; ***P<0.001;**P<0.01; *P<0.05; ns, P>0.05. […] Data represent mean of n=3±SEM.

[3] = target: T2, BAX R134E R145E (Homo sapiens, UniProt Q07812, R134E/R145E); assay: Liposomal release assay, BAX R134E R145E mutant; assay type: biochemical; settings: 250 nM BAX, 5 nM tBID; read-out: IC50, inhibition of liposomal release
T2 construct: Human full-length (1-192) wild-type BAX (Q07812); made in house; host or cells: E. coli BL21 (DE3) CodonPlus (DE3)-RIPL
T2 sequence (Q07812 whole entry R134E/R145E): as the sequence (Q07812 whole entry R145E) above, with R134E counted along it
Experimental: as §1

[4] = target: T3, BAX (Homo sapiens, UniProt Q07812); assay: Competitive fluorescence polarization binding assay (FITC-BIM-SAHB displacement from BAX)
T3 construct: Human full-length (1-192) wild-type BAX (Q07812); made in house; host or cells: E. coli BL21 (DE3) CodonPlus (DE3)-RIPL
T3 sequence (Q07812 whole entry): as the sequence (Q07812 whole entry R145E) above, with E145R counted along it
Experimental: Fluorescence polarization assays (FPA) were performed as previously described (Reyna, D. E., et al. Cancer Cell 32 490-505 (2017)). Direct binding isotherms of BIM-SAHB were measured by incubated FITC-BIM-SAHB (25 nM) with serial dilutions of full-length BAX alone or in the presence of 0.5 or 1 μM EO. Competition binding assays were performed by titrating EO into BAX (150 nM) and FITC-BIM-SAHB (25 nM). Measurements were taken at 10-minute intervals over 60 minutes on a TECAN F200 PRO microplate reader. Reported curves represent a 10-minute time point. KD values and IC50 were determined using GraphPad Prism nonlinear fit four-parameter agonist or antagonist versus response with restraints for 100% and 0% bound calculated by the mP of saturated BAX+FITC-BIM-SAHB and FITC-BIM-SAHB alone.

[5] = target: T3, BAX; assay: Liposomal permeabilization (release) assay; assay type: biochemical; settings: compared with EO
Experimental: as §1

[6] = target: T4, 15N-labeled BAX (Homo sapiens, UniProt Q07812); assay: 1H-15N HSQC NMR chemical shift perturbation; assay type: binding
T4 construct: Human full-length (1-192) wild-type BAX (Q07812); made in house; host or cells: E. coli BL21 (DE3) CodonPlus (DE3)-RIPL
T4 sequence (Q07812 whole entry): as the sequence (Q07812 whole entry R145E) above, with E145R counted along it
Experimental: The uniformly ^15N-labeled protein samples were prepared by growing the bacteria in the minimal medium, as previously described (Uchime, O., et al. J Biol Chem 291, 89-102, (2016)). Unlabeled and ^15N-labeled protein samples were prepared in 50 mM potassium phosphate, 50 mM NaCl solution at pH 6.0 in 10% D20. All experiments were performed using an independent sample for each experimental measurement as a 400 μL sample in a 5-mm Shigemi; all samples were DMSO matched with 2% d6-DMSO. Correlation ^1H-^15N-HSQC spectra were recorded on ^15N-labeled BAX at 50 μM in the presence and absence of 100 μM of EO. NMR spectra were acquired at 25° C. on a Bruker 600 MHz spectrometer equipped with a cryoprobe, processed using TopSpin and analyzed using NMRView. […] The weighted average chemical shift perturbation (CSP) was calculated as √(L1δ^1H)^2+(L1δ^15N/5)^2)/2 in p.p.m. […] The significance threshold for backbone amide chemical shift changes was calculated based on the average chemical shift across all residues plus 0.5 or 1 s.d. Solvent-accessible surface area was probed by the addition of 10 mM hy-TEMPO (sigma) to 50 μM ^15N-labeled BAX with and without 100 μM EO measured using standard ^1H-^15N-HSQC with an increased recycle delay of 2 sec. PRE was calculated as the ratio of peak intensities of BAX in the presence of hy-TEMPO to BAX without hy-TEMPO (% intensity). […]

[7] = tested on: platelets; assay: Navitoclax-induced thrombocytopenia, platelet counts; assay type: in vivo, C57BL/6J mice; settings: ABT-263 25 mg/kg single dose, oral gavage, within 24 hr
[8] = tested on: platelets; settings: platelets isolated from treated patients; cited from earlier work

IC50 relative to BAX WT [1]: more than double that of BAX WT
IC50 [3]: > 10 µM
Molecule: CC1=NN(c2ccc(C)c(C)c2)C(=O)/C1=N\Nc1cccc(-c2cccc(C(=O)O)c2)c1O [EO, eltrombopag]
STS-induced apoptosis mediated by caspase 3/7 activity [2]: no effect

competitive binding to the BAX trigger site (FP) ([4]; FIG. 7a): competitive binding
Molecule: COc1c(NN=C2C(=O)N(c3cccc([N+](=O)[O-])c3)N=C2C)cccc1-c1cccc(C(=O)O)c1 [EO-2, 2′-methoxy-3′-(2-(3-methyl-1-(3-nitrophenyl)-5-oxo-1,5-dihydro-4H-pyrazol-4-ylidene)hydrazineyl)-[1,1′-biphenyl]-3-carboxylic acid]

inhibition of BAX in liposomal release assays [5]: significantly diminished inhibition
IC50 ([4]; BAX 150 nM, FITC-BIM-SAHB 25 nM, read-out: IC50, competition of FITC-BIM-SAHB by FPA): > 5 µM
chemical shift perturbations of 15N-labeled BAX [6]: minimal CSPs
Molecule: COC(=O)c1cccc(-c2cccc(NN=C3C(=O)N(c4ccc(C)c(C)c4)N=C3C)c2O)c1 [EO-Methyl Ester, eltrombopag methyl ester]

Molecule: CC1(C)CCC(c2ccc(Cl)cc2)=C(CN2CCN(c3ccc(C(=O)NS(=O)(=O)c4ccc(N[C@H](CCN5CCOCC5)CSc5ccccc5)c(S(=O)(=O)C(F)(F)F)c4)cc3)CC2)C1 [navitoclax]
platelet loss [7]: significant platelet loss

Molecule: romiplostim
resistance of patient platelets to ABT-263 (Navitoclax) induced cell death [8]: not observed
